These results are taken from EPA's ToxValDB 9.5 (doi:10.2903/j.efsa.2011.1962).

One data set concerns Canidae. Particulars: subchronic; duration: 90 days; oral; Dog Other; histopathology: nonneoplastic.
The subject of a further data set is Daphnia magna. The conditions noted are these: chronic/long-term; duration: 21 days; reproduction.
The subject of the next data set is Lepomis macrochirus. The conditions noted are these: chronic/long-term; duration: 28 days; body weight.
The test system of a further data set is Oryctolagus sp. The conditions noted are these: developmental; development.
The subject of the next data set is Tagia sp. Particulars: acute; duration: 14 days; mortality.
For another data set, the system named is Typhlodromus pyri. The data set is described as follows: LR50; higher = less toxic. The conditions noted are these: not reported; mortality.

A word on the NOAEL: it is the highest dose or exposure tested at which no adverse effect was seen. By LOAEL is commonly meant the lowest dose or exposure tested at which an adverse effect was seen. For `CC(C)C(O)(c1ccc(OC(F)(F)F)cc1)c1cncnc1` (stereo unspecified) [Flurprimidol], the NOAEL is 1.5 mg/kg-day in the data set with Canidae; 9 mg/kg-day in the data set on Oryctolagus sp.; 10 mg/kg-day in the data set on Rattus norvegicus (developmental, development); 1.8 mg/kg-day with Rattus norvegicus (reproduction developmental, reproduction); 1.96 mg/kg-day in the data set on Rattus norvegicus (subchronic, duration: 90 days, oral, organ weight). For the same molecule, the figures for the NOEC with Daphnia magna, in the data set with Lepomis macrochirus and in the data set with Tagia sp. were 1.7 mg/L, 0.42 mg/L and 62.6 mg/kg, respectively. Further, the LOAEL with Rattus norvegicus (chronic, duration: 2 years, organ weight) was found to be 1 mg/kg-day. Moreover, in the data set with Rattus norvegicus (short-term, oral, diet, body weight), the NOEL was determined as 1.62 mg/kg-day. This molecule also gave an LR50 in the data set on Typhlodromus pyri of over 29.6 g/ha.
